Reference: US20020133837A1, “Transgenic animals at a nuclear hormone receptor locus” (priority 2001, published 2002)
Entries after “also recorded” stand apart in the source; their conditions may differ.

Tested on: inbred transgenic mice with mutant thyroid hormone receptor beta (TRβPV) and wild-type mice
Assay: Behavioral analysis of locomotor activity (light beam breaks) after methylphenidate
Format: in vivo, mouse
Settings: methylphenidate 7.5 mg/kg or 30.0 mg/kg on day 3, activity assessed for 3 hours following injection
Procedure: Animals were kept on a light-dark schedule of 12 hours with lights on at 6:00 a.m. Behavioral tests were started between 4:30 p.m. and 5:30 p.m. Eleven-to sixteen-week-old mice were assessed in a 15×30 cm cage with four light beams crossing the cage on the long axis. Locomotor activity was measured by computer-automated counting of the number of times a light beam was blocked (San Diego Instruments, San Diego, Calif.). Activity was measured for 3 hours upon introduction of each animal to the chamber on day 1 to measure baseline/novel behavior levels (see FIG. 3), and the animals remained in the chambers for the length of the experiment (3 days) to permit drug response in an acclimated environment. On day 2, animals were injected with saline (i.p),and on day 3 with methylphenidate (7.5 mg/kg or 30.0 mg/kg). Food and water were provided ad libitum, and activity was assessed for 3 hours following injection. Activity scores were subjected to analysis of variance (ANOVA) analysis to compare the groups by genotype and injection status.

Compound: COC(=O)C(c1ccccc1)C1CCCCN1 (centres unmarked) [methylphenidate]
- level of locomotor activity in response to methylphenidate (heterozygous and homozygous TRβ PV mutant inbred mice): decreased levels of activity; also recorded: responded to treatment; also recorded: reduced their level of activity; also recorded: level of activity in these mice was reduced
- level of locomotor activity in response to methylphenidate (wild-type mice): increase in activity
